Experimental data from patent US6987117B2, “Antidepressant azaheterocyclylmethyl derivatives of 1,4-dioxino[2,3-b]pyridine” (Wyeth, priority 2001, dated 2006).
pIC50, pKi: −log10 of the molar value. Structures can show the parent of a compound that is named as a salt.

How the values were obtained:
[1] = molecular target: T1, cloned human 5-HT1A receptors (Homo sapiens, UniProt P08908); assay: 35S-GTPγS binding assay, 5-HT1A antagonist activity; assay type: biochemical; settings: reversal of standard agonist 8-OHDPAT; for pIC50: read-out: 5-HT1A Function IC50
T1 construct: expressed in transfected cells
T1 sequence (P08908 1-422): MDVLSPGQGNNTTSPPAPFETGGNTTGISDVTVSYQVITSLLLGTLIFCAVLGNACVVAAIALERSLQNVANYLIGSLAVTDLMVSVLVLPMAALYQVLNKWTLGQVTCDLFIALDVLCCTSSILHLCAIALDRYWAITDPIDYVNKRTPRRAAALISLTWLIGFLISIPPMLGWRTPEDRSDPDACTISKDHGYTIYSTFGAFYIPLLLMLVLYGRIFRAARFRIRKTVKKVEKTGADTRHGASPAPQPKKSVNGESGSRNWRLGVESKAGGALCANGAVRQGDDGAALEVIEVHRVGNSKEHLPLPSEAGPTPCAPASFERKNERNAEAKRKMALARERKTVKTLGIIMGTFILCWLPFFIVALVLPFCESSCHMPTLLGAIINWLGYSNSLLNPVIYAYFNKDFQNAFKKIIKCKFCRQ
Protocol: Antagonist activity at 5-HT1A receptors was established by using a ^35S-GTPγS binding assay similar to that used by Lazareno and Birdsall (Br. J. Pharmacol. 109: 1120, 1993), in which the test compound's ability to affect the binding of ^35S-GTPγS to membranes containing cloned human 5-HT1A receptors was determined. Agonists produce an increase in binding whereas antagonists produce no increase but rather reverse the effects of the standard agonist 8-OHOPAT. The test compound's maximum inhibitory effect is represented as the Imax, while its potency is defined by the IC50.

[2] = molecular target: T2, human 5-HT1A receptors (Homo sapiens, UniProt P08908); assay: [3H] 8-OHDPAT displacement, 5-HT1A receptor affinity; assay type: binding
T2 construct: expressed in transfected cells; host or cells: CHO cells (stably transfected)
T2 sequence (P08908 1-422): T1 sequence (P08908 1-422)
Description: High affinity for the serotonin 5-HT1A receptor was established by testing the claimed compound's ability to displace [^3H] 8-OHDPAT (dipropylaminotetralin) from the 5-HT1A serotonin receptor following a modification of the procedure of Hall et al., J. Neurochem. 44, 1685 (1985) which utilizes CHO cells stably transfected with human 5-HT1A receptors.

[3] = molecular target: T3, serotonin transporter (Rattus norvegicus, UniProt P31652); assay: 3H-paroxetine displacement, serotonin transporter affinity; assay type: binding
T3 construct: displace ^3H-paroxetine from male rat frontal cortical membranes; from tissue; host or cells: male rat frontal cortex membranes
T3 sequence (P31652 whole entry): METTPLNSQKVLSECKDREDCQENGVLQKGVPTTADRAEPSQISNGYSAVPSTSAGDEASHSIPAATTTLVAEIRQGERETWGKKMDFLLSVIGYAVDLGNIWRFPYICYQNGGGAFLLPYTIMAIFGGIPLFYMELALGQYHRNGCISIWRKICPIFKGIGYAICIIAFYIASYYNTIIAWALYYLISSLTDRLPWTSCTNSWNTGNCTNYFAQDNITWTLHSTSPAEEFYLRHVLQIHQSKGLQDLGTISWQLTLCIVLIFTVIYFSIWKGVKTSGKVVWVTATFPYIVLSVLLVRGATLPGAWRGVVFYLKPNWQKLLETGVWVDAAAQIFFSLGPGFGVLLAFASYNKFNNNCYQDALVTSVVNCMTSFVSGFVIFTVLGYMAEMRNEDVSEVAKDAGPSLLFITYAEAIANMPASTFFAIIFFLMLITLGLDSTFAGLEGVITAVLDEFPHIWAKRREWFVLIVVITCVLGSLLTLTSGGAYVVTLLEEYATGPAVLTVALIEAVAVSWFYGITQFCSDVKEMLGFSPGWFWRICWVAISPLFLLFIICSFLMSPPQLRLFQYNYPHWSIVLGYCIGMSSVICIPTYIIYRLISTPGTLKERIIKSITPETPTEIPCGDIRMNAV

SMILES | melting point [°C] | pIC50 [1] | pKi [2] | pKi [3] | 5-HT1A Function Imax (maximum inhibitory effect) [1] [%]
N#Cc1ccc2[nH]cc(C3=CCN(CC4COc5cccnc5O4)CC3)c2c1 (centres unmarked) (as salt: oxalate) [Example 3, 3-{1-[2,3-Dihydro[1,4]dioxino[2,3-b]pyridin-3-ylmethyl]-1,2,3,6-tetrahydro-4-pyridinyl}-1H-indole-5-carbonitrile] | 165 | – | – | – | –
C1=C(c2c[nH]c3ccccc23)CCN(C[C@H]2COc3cccnc3O2)C1 (as salt: oxalate) [Example 1] | 116 | – | – | – | –
Fc1ccc2[nH]cc(C3=CCN(CC4COc5cccnc5O4)CC3)c2c1 (centres unmarked) (as salt: oxalate) [Example 2, 3-{[4-(5-Fluoro-1H-indol-3-yl)-3,6-dihydro-1(2H)-pyridinyl]methyl}-2,3-dihydro{1,4]dioxino[2,3-b]pyridine] | 124 | – | – | – | –
C1=C(c2c[nH]c3ccccc23)CCN(C[C@H]2COc3cccnc3O2)C1 [Example 1] | – | 6.71 | 7.84 | 8.02 | –
Fc1ccc2c(C3=CCN(CC4COc5cccnc5O4)CC3)c[nH]c2c1 (centres unmarked) [Example 4, 3-{[4-(6-Fluoro-1H-indol-3-yl)-3,6-dihydro-1(2H)-pyridinyl]methyl}-2,3-dihydro[1,4]dioxino[2,3-b]pyridine] | – | 6.21 | 7.99 | 8.92 | –
Fc1ccc2[nH]cc(C3=CCN(CC4COc5cccnc5O4)CC3)c2c1 (centres unmarked) [Example 2, 3-{[4-(5-Fluoro-1H-indol-3-yl)-3,6-dihydro-1(2H)-pyridinyl]methyl}-2,3-dihydro{1,4]dioxino[2,3-b]pyridine] | – | 7.24 | 8.17 | 8.62 | –
Fc1ccc2c(C3=CCN(CC4COc5cccnc5O4)CC3)c[nH]c2c1 (centres unmarked) (as salt: oxalate) [Example 4, 3-{[4-(6-Fluoro-1H-indol-3-yl)-3,6-dihydro-1(2H)-pyridinyl]methyl}-2,3-dihydro[1,4]dioxino[2,3-b]pyridine] | 120 | – | – | – | –
N#Cc1ccc2[nH]cc(C3=CCN(CC4COc5cccnc5O4)CC3)c2c1 (centres unmarked) [Example 3, 3-{1-[2,3-Dihydro[1,4]dioxino[2,3-b]pyridin-3-ylmethyl]-1,2,3,6-tetrahydro-4-pyridinyl}-1H-indole-5-carbonitrile] | – | 6.74 | 7.65 | 8.59 | 100
